Earlier results on one molecule are cited in US4556678A (Key Pharmaceuticals, Inc., priority 1982, dated 1985).

Structures are written as SMILES.

[1] abbreviates: oral formulations currently in use.

In the case of `CC(C)NCC(O)COc1cccc2ccccc12` (stereo not drawn) [Propranolol, propranolol], the bioavailability entry (administration with food) is recorded as “enhance its bioavailability”. Under setting [1], the “absorption from the gastrointestinal tract” value is given as “almost completely absorbed” and the liver metabolism result is reported as “subject to rapid liver metabolism”.
